# Experiments:
# [1] = target: T1, Prostaglandin D2 receptor 2 (Homo sapiens, UniProt Q9Y5Y4); assay: Inhibitory activity for binding of PGD-2 to CRTH-2 in hCRTH-2 binding assay using HEK293 cell membranes
# T1 sequence (Q9Y5Y4 whole entry): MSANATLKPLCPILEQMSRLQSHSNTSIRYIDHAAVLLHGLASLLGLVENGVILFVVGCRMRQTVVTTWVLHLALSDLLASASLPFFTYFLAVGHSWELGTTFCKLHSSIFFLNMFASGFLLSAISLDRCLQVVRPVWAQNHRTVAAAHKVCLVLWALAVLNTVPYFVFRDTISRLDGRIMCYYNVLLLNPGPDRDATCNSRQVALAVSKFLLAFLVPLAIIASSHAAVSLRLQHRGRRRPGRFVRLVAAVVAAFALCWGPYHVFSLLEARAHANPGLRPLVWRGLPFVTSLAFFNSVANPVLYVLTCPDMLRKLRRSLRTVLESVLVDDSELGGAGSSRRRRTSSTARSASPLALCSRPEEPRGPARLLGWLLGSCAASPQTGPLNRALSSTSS
# [2] = target: T1, Prostaglandin D2 receptor 2; assay: Inhibitory concentration for PGD2-mediated receptor activation in a fluorescence assay that measures changes in intracellular calcium; type: functional, cell-based
# Thromboxane A2 receptor [3] = target: T2, Thromboxane A2 receptor (Homo sapiens, UniProt P21731); assay: Inhibitory activity for binding of PGD-2 in hTP binding assay using HEK293 cell membranes
# T2 sequence (P21731 whole entry): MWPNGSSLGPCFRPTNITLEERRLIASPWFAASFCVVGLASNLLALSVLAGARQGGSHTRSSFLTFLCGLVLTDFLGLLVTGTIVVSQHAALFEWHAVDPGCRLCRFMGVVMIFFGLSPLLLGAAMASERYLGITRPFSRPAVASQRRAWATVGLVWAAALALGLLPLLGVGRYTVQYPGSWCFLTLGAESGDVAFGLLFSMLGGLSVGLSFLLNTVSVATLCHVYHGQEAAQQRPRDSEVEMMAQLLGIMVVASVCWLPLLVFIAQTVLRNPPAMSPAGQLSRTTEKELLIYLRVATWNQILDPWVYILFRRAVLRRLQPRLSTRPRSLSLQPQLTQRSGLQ
# [4] = target: T3, Thromboxane A2 receptor (Homo sapiens) (UniProt P21731); assay: Percentage inhibition for binding of PGD-2 in hTP binding assay using HEK293 cell membranes; conditions: concentration not given here
# T3 sequence (whole entry): T2 sequence (P21731 whole entry)
# Thromboxane A2 receptor [5] = target: T2, Thromboxane A2 receptor; assay: Inhibitory activity for binding of PGD-2 to hTP in hTP binding assay using HEK293 cell membranes
# [6] = target: T1, Prostaglandin D2 receptor 2; assay: = for PGD2-mediated receptor activation in a fluorescence assay that measures changes in intracellular calcium
# [7] = target: T1, Prostaglandin D2 receptor 2; assay: Inhibitory activity against CRTH-2 in hCRTH-2 binding assay using HEK293 cell membranes
Structure (SMILES),Ki [1],other results
O=C(O)CCCn1c2c(c3cc(NS(=O)(=O)c4ccc(F)cc4)ccc31)CCCC2,8.3 µM,–
O=C(O)/C=C\n1c2c(c3cc(NS(=O)(=O)c4ccc(F)cc4)ccc31)CCCC2,19 µM,–
CC(C)(C)C1CCc2c(c3cc(NS(=O)(=O)c4ccc(F)cc4)ccc3n2CC(=O)O)C1 (configuration not stated),–,IC50 [2]: 0.12 µM
CC1CCc2c(c3cc(NS(=O)(=O)c4ccc(F)cc4)ccc3n2CC(=O)O)C1 (configuration not stated),–,Ki (Thromboxane A2 receptor [3]): > 20 µM; inhibition [4]: 30%; IC50 [2]: 0.0097 µM
Nc1ccc2c(c1)c1c(n2CCC(=O)O)CCCC1,> 50 µM,–
Cc1ccccc1S(=O)(=O)Nc1ccc2c(c1)c1c(n2CCC(=O)O)CCCC1,> 50 µM,–
O=C(O)c1cccc(-n2c3c(c4cc(NS(=O)(=O)c5ccc(F)cc5)ccc42)CCCC3)c1,27 µM,–
CC(Cn1c2c(c3cc(NS(=O)(=O)c4ccc(F)cc4)ccc31)CCCC2)C(=O)O (configuration not stated),> 50 µM,–
CC(CC(=O)O)n1c2c(c3cc(NS(=O)(=O)c4ccc(F)cc4)ccc31)CCCC2 (configuration not stated),> 50 µM,–
O=C(O)CN1c2ccc(NS(=O)(=O)c3ccc(F)cc3)cc2C2CCCCCC21 (configuration not stated),–,Ki (Thromboxane A2 receptor [3]): > 20 µM; IC50 [2]: 0.022 µM
O=C(O)Cn1c2c(c3cc(NS(=O)(=O)c4ccc(F)cc4)ccc31)CCC2,–,IC50 [2]: 0.13 µM
O=C(O)CCn1c2c(c3cc(NC(=O)Nc4ccccc4)ccc31)CCCC2,> 50 µM,–
O=C(O)CCn1c2c(c3cc(NC(=O)c4ccccc4)ccc31)CCCC2,> 50 µM,–
CCCS(=O)(=O)Nc1ccc2c(c1)c1c(n2CCC(=O)O)CCCC1,> 50 µM,–
O=C(O)Cn1c2c(c3cc(NS(=O)(=O)c4ccc(F)cc4)ccc31)CC(c1ccccc1)CC2 (configuration not stated),–,Ki (Thromboxane A2 receptor [3]): > 20 µM; inhibition [4]: 66%; IC50 [2]: 0.022 µM
O=C(O)CCn1c2c(c3cc(NCc4ccccc4)ccc31)CCCC2,17 µM,–
CCC(C(=O)O)n1c2c(c3cc(NS(=O)(=O)c4ccc(F)cc4)ccc31)CCCC2 (configuration not stated),18 µM,–
O=P(O)(O)CCn1c2c(c3cc(NS(=O)(=O)c4ccc(F)cc4)ccc31)CCCC2,> 50 µM,–
O=C(O)c1ccccc1-n1c2c(c3cc(NS(=O)(=O)c4ccc(F)cc4)ccc31)CCCC2,33 µM,–

# Now from value to compound, other results behind:
Ki [1],Structure (SMILES),other results
3.6 µM,O=C(O)CCn1c2c(c3cc(NS(=O)(=O)c4ccc(F)cc4F)ccc31)CCCC2,–
7.6 µM,O=C(O)CCn1c2c(c3cc(NS(=O)(=O)c4cccs4)ccc31)CCCC2,–
7.5 µM,O=C(O)CCn1c2c(c3cc(NS(=O)(=O)c4ccc(Oc5ccccc5)cc4)ccc31)CCCC2,–
2.1 µM,COc1ccc(S(=O)(=O)Nc2ccc3c(c2)c2c(n3CCC(=O)O)CCCC2)cc1,–
7.4 µM,O=C(O)CCn1c2c(c3cc(NS(=O)(=O)c4ccc5ccccc5c4)ccc31)CCCC2,–
2.4 µM,O=S(=O)(O)CCn1c2c(c3cc(NS(=O)(=O)c4ccc(F)cc4)ccc31)CCCC2,–
7.4 µM,O=C(O)CCn1c2c(c3cc(NS(=O)(=O)c4ccc(O)cc4)ccc31)CCCC2,–
6.4 µM,O=C(O)c1ccc(-n2c3c(c4cc(NS(=O)(=O)c5ccc(F)cc5)ccc42)CCCC3)cc1,–
3.2 µM,Cc1ccc(S(=O)(=O)Nc2ccc3c(c2)c2c(n3CCC(=O)O)CCCC2)cc1,–
4.4 µM,CC(C(=O)O)n1c2c(c3cc(NS(=O)(=O)c4ccc(F)cc4)ccc31)CCCC2 (configuration not stated),–
4.2 µM,O=C(O)CCn1c2c(c3cc(NS(=O)(=O)c4ccc(F)c(F)c4)ccc31)CCCC2,–
1.2 µM,O=C(O)CCn1c2c(c3cc(NS(=O)(=O)c4ccccc4)ccc31)CCCC2,–
4.6 µM,O=C(O)CCCCn1c2c(c3cc(NS(=O)(=O)c4ccc(F)cc4)ccc31)CCCC2,–
0.97 µM,O=C(O)CCn1c2c(c3cc(NS(=O)(=O)c4ccccc4F)ccc31)CCCC2,–
0.03 µM,O=C(O)Cn1c2c(c3cc(NS(=O)(=O)c4ccc(F)cc4)ccc31)CCCC2,Ki (Thromboxane A2 receptor [5]): > 20 µM
1.7 µM,O=C(O)CCn1c2c(c3cc(NS(=O)(=O)c4ccc(F)c(Cl)c4)ccc31)CCCC2,–
4.2 µM,Cc1cccc(S(=O)(=O)Nc2ccc3c(c2)c2c(n3CCC(=O)O)CCCC2)c1,–
1.3 µM,O=C(O)CCn1c2c(c3cc(NS(=O)(=O)c4cccc(F)c4)ccc31)CCCC2,–
3 µM,O=C(O)CCn1c2c(c3cc(NS(=O)(=O)c4ccc(Cl)cc4)ccc31)CCCC2,–
0.29 µM,O=C(O)CCn1c2c(c3ccccc31)C[C@H](NS(=O)(=O)c1ccc(F)cc1)CC2 [RAMATROBAN],Ki (Thromboxane A2 receptor [3]): 0.018 µM; IC50 [6]: 0.34 µM; inhibition [4]: 98%
3.3 µM,O=C(O)CCn1c2c(c3cc(NS(=O)(=O)c4ccc(-c5ccccc5)cc4)ccc31)CCCC2,–
0.25 µM,O=C(O)CCn1c2c(c3cc(NS(=O)(=O)c4ccc(F)cc4)ccc31)CCCC2,Ki (Thromboxane A2 receptor [3]): 1.5 µM; Ki [7]: 0.25 µM

# Source: ChEMBL document CHEMBL1142052, “Isosteric ramatroban analogs: selective and potent CRTH-2 antagonists” (Bioorg Med Chem Lett, 2005)
